SMILES strings stand for the structures.

Common to all, as to format: in vivo
In assay [1] the test system is Echinochloa crus-galli. Kind of assay: Herbicidal effect, soil spray the day after seeding, pot test (Example 1153). To be noted: 100 L per 10000 m^2, 30 PSI, 10 days in greenhouse, scale of 0 to 100. The procedure:
(§1) Echinochloa crus-galli was seeded on a plastic pot filled with a soil. On the next day, an aqueous diluted liquid of trifludimoxazin (prepared by diluting an emuslfiable concentrate of trifludimoxazin with water) was uniformly sprayed onto the pot through the nozzles given in Table 1 at the amount of the aqueous diluted liquid of 100 L per 10000 m^2 so that the application rate of trifludimoxazin might be 20 or 10 g per 10000 m^2. The spray pressure was 30 PSI and the spray height (distance between the nozzle outlet and the soil surface of the pot) was 60 cm. The air temperature was 17 degrees Celsius, the wind speed was 2.5 m/s, and the relative humidity was 65% at the timing of application. The sprayed pots were placed in a greenhouse for 10 days to grow Echinochloa crus-galli and then herbicidal effects were evaluated on scale of 0 to 100.

The subject of assay [2] is Echinochloa crus-galli. The experiment in a line: Herbicidal effect, soil spray the day after seeding, pot test (Example 1154). The note with it: 150 L per 10000 m^2, 30 PSI, 10 days in greenhouse, scale of 0 to 100. On the procedure: as §1, with “in Table 2 at the” for “in Table 1 at the”, “liquid of 150 L per” for “liquid of 100 L per”, “might be 30 or 15” for “might be 20 or 10”, “30 or 15 g per” for “20 or 10 g per”, “evaluated on a scale of” for “evaluated on scale of”

Assay [3] has as its system Waterhemp having a Gly210 deletion mutation in PPO2. Kind of assay: Herbicidal effect, soil spray the day after seeding, pot test (Example 1155). The note with it: 10 g per 10000 m^2; 100 L per 10000 m^2; 30 PSI; 10 days in greenhouse; scale of 0 to 100. The procedure: as §1, with “Waterhemp having a Gly210 deletion mutation in PPO2, was seeded” for “Echinochloa crus-galli was seeded”, “in Table 3 at the” for “in Table 1 at the”, “might be 10 g” for “might be 20 or 10 g”, “to grow waterhemp and then” for “to grow Echinochloa crus-galli and then”, “evaluated on a scale of” for “evaluated on scale of”

For assay [4] the test system is unchanged. The experiment in a line: Herbicidal effect, soil spray the day after seeding, pot test (Example 1156). The note with it: 15 g per 10000 m^2; 150 L per 10000 m^2; 30 PSI; 10 days in greenhouse; scale of 0 to 100. On the procedure: as §1, with “Waterhemp having a Gly210 deletion mutation in PPO2 was seeded” for “Echinochloa crus-galli was seeded”, “in Table 4 at the” for “in Table 1 at the”, “liquid of 150 L per” for “liquid of 100 L per”, “might be 15 g per” for “might be 20 or 10 g per”, “to grow waterhemp and then” for “to grow Echinochloa crus-galli and then”, “evaluated on a scale of” for “evaluated on scale of”

Assay [5] deals with Amaranthus palmeri, waterhemp and ragweeds having mutations in PPO2. Kind of assay: Effect on weeds, soil surface application on day of weed sowing, soybean sown after 7 days (Example 1). To be noted: 10, 20, 40, 80, or 160 g/ha, 200 L/ha, drift-reducing nozzle TTI11004, examined after 14 days. The source says: Amaranthus palmeri having an Arg128Gly mutation in PPO2, Amaranthus palmeri having an Arg128Met mutation in PPO2, Amaranthus palmeri having a Gly210 deletion mutation in PPO2, Amaranthus palmeri having a Gly399Ala mutation in PPO2, waterhemp having a Gly210 deletion mutation in PPO2, and ragweeds having Arg128Leu in PPO2 are sown in a plastic pot. On the same day, a compound X is applied to the surface of soil by using a drift-reducing nozzle (TTI11004 manufactured by Teejet Company). The amount of the compound X to be applied is 10, 20, 40, 80, or 160 g/ha and the amount of spray dilution is 200 L/ha. Then, these weeds are cultivated in a greenhouse and Roundup Ready 2 Xtend soybean seeds are sown after 7 days, to examine the effects on the weeds and phytotoxic effects on the soybean after 14 days.

For assay [6] the test system is unchanged. The experiment in a line: Effect on weeds, soil surface application on day of sowing weeds and soybean (Example 2). The note with it: 10, 20, 40, 80, or 160 g/ha, 200 L/ha, drift-reducing nozzle TTI11004, examined after 21 days. From the text:
Amaranthus palmeri having an Arg128Gly mutation in PPO2, Amaranthus palmeri having an Arg128Met mutation in PPO2, Amaranthus palmeri having a Gly210 deletion mutation in PPO2, Amaranthus palmeri having a Gly399Ala mutation in PPO2, waterhemp having a Gly210 deletion mutation in PP02, ragweeds having Arg128Leu in PP02, and a Roundup Ready 2 Xtend soybean are sown in a plastic pot. On the same day, a compound X is applied to the surface of soil by using a drift-reducing nozzle (TTI11004 manufactured by Teejet Company). The amount of the compound X to be applied is 10, 20, 40, 80, or 160 g/ha and the amount of spray dilution is 200 L/ha. Then, the weeds and soybean are cultivated in a greenhouse to examine the effects on the weeds and phytotoxic effects on the soybean after 21 days.

Assay [7] has the same test system. The experiment in a line: Effect on weeds, foliar treatment 21 days after sowing (Example 3). The note with it: 10, 20, 40, 80, or 160 g/ha, 200 L/ha, drift-reducing nozzle TTI11004, examined 14 days after treatment. From the text:
Amaranthus palmeri having an Arg128Gly mutation in PPO2, Amaranthus palmeri having an Arg128Met mutation in PPO2, Amaranthus palmeri having a Gly210 deletion mutation in PPO2, Amaranthus palmeri having a Gly399A1a mutation in PPO2, waterhemp having a Gly210 deletion mutation in PP02, ragweeds having Arg128Leu in PP02, and a Roundup Ready 2 Xtend soybean are sown in a plastic pot. Then, the weeds and soybean are cultivated in a greenhouse and a compound X is applied to perform foliar treatment by using a drift-reducing nozzle (TTI11004 manufactured by Teejet Company) 21 days after sowing. The amount of the compound X to be applied is 10, 20, 40, 80, or 160 g/ha and the amount of spray dilution is 200 L/ha. Then, the weeds and soybean are further cultivated in a greenhouse to examine the effects on the weeds and phytotoxic effects on the soybean 14 days after treatment.

Take `C#CCN1C(=O)C(F)(F)Oc2cc(F)c(-n3c(=O)n(C)c(=S)n(C)c3=O)cc21` [Trifludimoxazin, trifludimoxazin]: in the assay on Echinochloa crus-galli [1] (10 g per 10000 m^2), the “Herbicidal effect on Echinochloa crus-galli, Air induction nozzle (TTI11002)” value is recorded as 60 and the “Herbicidal effect on Echinochloa crus-galli, Standard nozzle (Teejet11002)” value was 20. Also, in the assay on Echinochloa crus-galli [1] (20 g per 10000 m^2), the “Herbicidal effect on Echinochloa crus-galli, Air induction nozzle (TTI11002)” value was found to be 80 and the “Herbicidal effect on Echinochloa crus-galli, Standard nozzle (Teejet11002)” value turned out to be 30. In the assay on Echinochloa crus-galli [2] (15 g per 10000 m^2), the “Herbicidal effect on Echinochloa crus-galli, Air induction nozzle (TTI11004)” value amounted to 70 and the “Herbicidal effect on Echinochloa crus-galli, Standard nozzle (Teejet11004)” value is reported as 30. In the assay on Echinochloa crus-galli [2] (30 g per 10000 m^2), the “Herbicidal effect on Echinochloa crus-galli, Air induction nozzle (TTI11004)” value is on record as 90 and the “Herbicidal effect on Echinochloa crus-galli, Standard nozzle (Teejet11004)” value came to 40. For the same molecule, in assay [3], the “Herbicidal effect on Waterhemp having a Gly210 deletion mutation in PPO2, Air induction nozzle (TTI11002)” value was 90; the “Herbicidal effect on Waterhemp having a Gly210 deletion mutation in PPO2, Pre-orifice nozzle (DG11002)” value amounted to 90; the “Herbicidal effect on Waterhemp having a Gly210 deletion mutation in PPO2, Standard nozzle (Teejet11002)” value was 50. Also, in assay [4], the “Herbicidal effect on Waterhemp having a Gly210 deletion mutation in PPO2, Air induction nozzle (TTI11004)” value is listed as 95 and the “Herbicidal effect on Waterhemp having a Gly210 deletion mutation in PPO2, Standard nozzle (Teejet11004)” value turned out to be 60.
In the case of `CCOC(=O)COc1ncccc1Oc1cc(-n2c(=O)cc(C(F)(F)F)n(C)c2=O)c(F)cc1Cl` [compound X, Ethyl [3-[2-chloro-4-fluoro-5-(1-methyl-6-trifluoromethyl-2,4-dioxo-1,2,3,4-tetrahydropyrimidine-3-yl)phenoxy]-2-pyridyloxy]acetate], the “effects on the weeds” value in assay [5], in assay [6] and in assay [7] was “valuable effect” in each case.
